# US20100298141A1, “SUBSTITUTED PYRIDINE N-OXIDE HERBICIDES” (E. I. DU PONT DE NEMOURS AND COMPANY, priority 2007, published 2010)
# How the values were obtained:
# [1] = system: sugarcane; assay: Test F pre-/postemergence test; format: in vivo, Saccharum officinarum; settings: for Plant response rating, Sugarcane: preemergence, scale 0 to 100
# Excerpt: Seeds of plant species selected from bermudagrass (Cynodon dactylon), Surinam grass (Brachiaria decumbens), large crabgrass (Digitaria sanguinalis), green foxtail (Setaria viridis), goosegrass (Eleusine indica), johnsongrass (Sorghum halepense), kochia (Kochia scoparia), pitted morningglory (Ipomoea lacunosa), purple nutsedge (Cyperus rotundus), common ragweed (Ambrosia elation), mustard (Brassica nigra), guineagrass (Panicum maximum), […] (Paspalum dilatatum), barnyardgrass (Echinochloa crus-galli), southern sandbur (Cenchrus echinatus), common sowthistle (Sonchus oleraceous), prickly […] spinosa), Italian ryegrass (Lolium multiflorum), common purslane (Portulaca oleracea), broadleaf signalgrass (Brachiaria platyphylla), common groundsel (Senecio vulgaris), common chickweed (Stellaria media), Virginia dayflower (Commelina virginica), annual bluegrass (Poa annua), naked crabgrass (Digitaria nuda), […] cochinchinensis), quackgrass (Elytrigia repens), Canada horseweed (Conyza canadensis), field bindweed (Convolvulus arvensis), […] (Bidens bipinnata), common mallow (Malva sylvestris), Russian thistle (Salsola kali), and sugarcane (Saccharum officinarum) were planted and treated preemergence with test chemicals formulated in a non-phytotoxic solvent mixture which included a surfactant. At a different time, sugarcane was treated with postemergence applications of some of the test chemicals formulated in the same manner. Plants were approximately 3- to 4-leaf stage for the postemergence treatments. Treated plants and controls were maintained in a greenhouse for 14 to 21 days, after which time all species were compared to controls and visually evaluated. […] A dash (-) response means no test result.
# [2] = system: field violet; assay: Test D preemergence test; format: in vivo, Viola arvensis; settings: scale 0 to 100
# Excerpt: Seeds of plant species selected from annual bluegrass (Poa annua), blackgrass (Alopecurus myosuroides), downy bromegrass (Bromus tectorum), field violet (Viola arvensis), green foxtail (Setaria viridis), Italian ryegrass (Lolium multiflorum), littleseed canarygrass (Phalaris minor), spring wheat (Triticum aestivum), wild oat (Avena fatua), […]), winter barley (Hordeum vulgare), and winter wheat (Triticum aestivum) were planted and treated preemergence with test chemicals formulated in a non-phytotoxic solvent mixture which included a surfactant. […] A dash (-) response means no test result.
# [3] = system: broadleaf signalgrass; assay: Test G preemergence test; format: in vivo, Brachiaria platyphylla; settings: scale 0 to 100
# [4] = system: fall panicum; assay: Test G preemergence test; format: in vivo, Panicum dichotomiflorum; settings: scale 0 to 100
# [5] = system: large crabgrass; assay: Test G preemergence test; format: in vivo, Digitaria sanguinalis; settings: scale 0 to 100
# [6] = system: millet foxtail; assay: Test G preemergence test; format: in vivo, Setaria italica; settings: scale 0 to 100
# [7] = system: yellow foxtail; assay: Test G preemergence test; format: in vivo, Pennisetum glaucum; settings: scale 0 to 100
# [8] = system: woolly cupgrass; assay: Test G preemergence test; format: in vivo, Eriochloa villosa; settings: scale 0 to 100
# [9] = system: purple redstem; assay: Test E flooded paddy test; format: in vivo, Ammannia coccinea; settings: Flood, after 21 days, scale 0 to 100
# Excerpt: (§1) Three plastic pots (ca. 16-cm diameter) per rate were partially filled with sterilized Tama silt loam soil comprising a 35:50:15 ratio of sand, silt and clay and 2.6% organic matter. Separate plantings for each of the three pots were as follows. Seeds from the U.S. of ducksalad (Heteranthera limosa), smallflower umbrella sedge (Cyperus difformis) and purple […] coccinea), were planted into one 16-cm pot for each rate. […] Seeds from the U.S. of barnyardgrass (Echinochloa crus-galli), late watergrass (Echinochloa oryzicola), early watergrass (Echinochloa oryzoides) and junglerice (Echinochloa colona) were planted into one 16-cm pot for each rate. Plantings were sequential so that crop and weed species were at the 2.0 to 2.5-leaf stage at time of treatment. Potted plants were grown in a greenhouse with day/night temperature settings of 30/27° C., and supplemental balanced lighting was provided to maintain a 16-hour photoperiod. Test pots were maintained in the greenhouse until test completion. At time of treatment, test pots were flooded to 3 cm above the soil surface, treated by application of test compounds directly to the paddy water, and then maintained at that water depth for the duration of the test. Effects of treatments on rice and weeds were visually evaluated by comparison to untreated controls after 21 days. […] A dash (-) response means no test result.
# [10] = system: barnyardgrass; assay: Test E flooded paddy test; format: in vivo, Echinochloa crus-galli; settings: Flood, after 21 days, scale 0 to 100
# Excerpt: as §1
compound,measurement,setting,value
Cc1cc[n+]([O-])c([S+]([O-])Cc2c(C(F)(F)F)nn(C)c2OCC(F)(F)F)c1 (racemic) [Compound 30],Sugarcane plant response rating,"[1]; 250 g ai/ha, postemergence, scale 0 to 100 (0 no effect, 100 complete control)",33
same,"Plant response rating, Sugarcane",[1]; 250 g ai/ha,12
Cn1nc(C(F)(F)F)c(C[S+]([O-])c2cccc[n+]2[O-])c1OCC(F)(F)F (racemic) [Compound 28],"Plant response rating, Sugarcane",[1]; 125 g ai/ha,17
same,"Plant response rating, Sugarcane",[1]; 500 g ai/ha,68
Cc1cc[n+]([O-])c(S(=O)(=O)C(Cl)c2c(C(F)(F)F)nn(C)c2Cl)c1 (racemic) [Compound 22],"Plant response rating, Field Violet",[2]; 31 g ai/ha,0
same,"Plant response rating, Field Violet",[2]; 62 g ai/ha,30
same,"Plant response rating, Field Violet",[2]; 125 g ai/ha,30
same,"Plant response rating, Field Violet",[2]; 250 g ai/ha,45
same,"Plant response rating, Signalgrass",[3]; 31 g ai/ha,0
same,"Plant response rating, Signalgrass",[3]; 62 g ai/ha,40
same,"Plant response rating, Signalgrass",[3]; 125 g ai/ha,65
same,"Plant response rating, Signalgrass",[3]; 250 g ai/ha,75
same,"Plant response rating, Fall Panicum",[4]; 31 g ai/ha,85
same,"Plant response rating, Fall Panicum",[4]; 62 g ai/ha,85
same,"Plant response rating, Fall Panicum",[4]; 125 g ai/ha,90
same,"Plant response rating, Fall Panicum",[4]; 250 g ai/ha,100
same,"Plant response rating, Crabgrass, Large",[5]; 31 g ai/ha,60
same,"Plant response rating, Crabgrass, Large",[5]; 62 g ai/ha,60
same,"Plant response rating, Crabgrass, Large",[5]; 125 g ai/ha,95
same,"Plant response rating, Crabgrass, Large",[5]; 250 g ai/ha,100
same,"Plant response rating, Foxtail, Millet",[6]; 31 g ai/ha,95
same,"Plant response rating, Foxtail, Millet",[6]; 62 g ai/ha,95
same,"Plant response rating, Foxtail, Millet",[6]; 125 g ai/ha,95
same,"Plant response rating, Foxtail, Millet",[6]; 250 g ai/ha,95
same,"Plant response rating, Foxtail, Yellow",[7]; 31 g ai/ha,0
same,"Plant response rating, Foxtail, Yellow",[7]; 62 g ai/ha,35
same,"Plant response rating, Foxtail, Yellow",[7]; 125 g ai/ha,100
same,"Plant response rating, Foxtail, Yellow",[7]; 250 g ai/ha,100
same,"Plant response rating, Cupgrass, Woolly",[8]; 31 g ai/ha,0
same,"Plant response rating, Cupgrass, Woolly",[8]; 62 g ai/ha,60
same,"Plant response rating, Cupgrass, Woolly",[8]; 125 g ai/ha,70
same,"Plant response rating, Cupgrass, Woolly",[8]; 250 g ai/ha,80
C#CCOc1c(C[S+]([O-])c2cccc[n+]2[O-])c(C(F)(F)F)nn1C (stereo not drawn) [Compound 76],"Plant response rating, Redstem",[9]; 64 g ai/ha,0
same,"Plant response rating, Redstem",[9]; 125 g ai/ha,40
same,"Plant response rating, Redstem",[9]; 250 g ai/ha,95
same,"Plant response rating, Redstem",[9]; 500 g ai/ha,100
same,"Plant response rating, Redstem",[9]; 1000 g ai/ha,100
same,"Plant response rating, Barnyardgrass",[10]; 64 g ai/ha,0
same,"Plant response rating, Barnyardgrass",[10]; 125 g ai/ha,60
same,"Plant response rating, Barnyardgrass",[10]; 250 g ai/ha,85
same,"Plant response rating, Barnyardgrass",[10]; 500 g ai/ha,95
same,"Plant response rating, Barnyardgrass",[10]; 1000 g ai/ha,95
